Data as given in ChEMBL document CHEMBL1144535, “3D pharmacophore based virtual screening of T-type calcium channel blockers” (Bioorg Med Chem, 2007).
Activity calls are given as the source filed them. The calls are words filed in the database; no cut-off is given here.

Legend:
Assay type in all cases: cell-based
[1] = biological target: Voltage-dependent T-type calcium channel subunit alpha-1H (Homo sapiens) (UniProt O95180); experiment: Inhibition of alpha-1H T-type calcium channel Cav3.2 expressed in Xenopus unfertilized oocytes at 100 uM by two-electrode voltage clamp method; settings: Oocyte
Voltage-dependent T-type calcium channel subunit alpha-1H (Homo sapiens), sequence (O95180 whole entry): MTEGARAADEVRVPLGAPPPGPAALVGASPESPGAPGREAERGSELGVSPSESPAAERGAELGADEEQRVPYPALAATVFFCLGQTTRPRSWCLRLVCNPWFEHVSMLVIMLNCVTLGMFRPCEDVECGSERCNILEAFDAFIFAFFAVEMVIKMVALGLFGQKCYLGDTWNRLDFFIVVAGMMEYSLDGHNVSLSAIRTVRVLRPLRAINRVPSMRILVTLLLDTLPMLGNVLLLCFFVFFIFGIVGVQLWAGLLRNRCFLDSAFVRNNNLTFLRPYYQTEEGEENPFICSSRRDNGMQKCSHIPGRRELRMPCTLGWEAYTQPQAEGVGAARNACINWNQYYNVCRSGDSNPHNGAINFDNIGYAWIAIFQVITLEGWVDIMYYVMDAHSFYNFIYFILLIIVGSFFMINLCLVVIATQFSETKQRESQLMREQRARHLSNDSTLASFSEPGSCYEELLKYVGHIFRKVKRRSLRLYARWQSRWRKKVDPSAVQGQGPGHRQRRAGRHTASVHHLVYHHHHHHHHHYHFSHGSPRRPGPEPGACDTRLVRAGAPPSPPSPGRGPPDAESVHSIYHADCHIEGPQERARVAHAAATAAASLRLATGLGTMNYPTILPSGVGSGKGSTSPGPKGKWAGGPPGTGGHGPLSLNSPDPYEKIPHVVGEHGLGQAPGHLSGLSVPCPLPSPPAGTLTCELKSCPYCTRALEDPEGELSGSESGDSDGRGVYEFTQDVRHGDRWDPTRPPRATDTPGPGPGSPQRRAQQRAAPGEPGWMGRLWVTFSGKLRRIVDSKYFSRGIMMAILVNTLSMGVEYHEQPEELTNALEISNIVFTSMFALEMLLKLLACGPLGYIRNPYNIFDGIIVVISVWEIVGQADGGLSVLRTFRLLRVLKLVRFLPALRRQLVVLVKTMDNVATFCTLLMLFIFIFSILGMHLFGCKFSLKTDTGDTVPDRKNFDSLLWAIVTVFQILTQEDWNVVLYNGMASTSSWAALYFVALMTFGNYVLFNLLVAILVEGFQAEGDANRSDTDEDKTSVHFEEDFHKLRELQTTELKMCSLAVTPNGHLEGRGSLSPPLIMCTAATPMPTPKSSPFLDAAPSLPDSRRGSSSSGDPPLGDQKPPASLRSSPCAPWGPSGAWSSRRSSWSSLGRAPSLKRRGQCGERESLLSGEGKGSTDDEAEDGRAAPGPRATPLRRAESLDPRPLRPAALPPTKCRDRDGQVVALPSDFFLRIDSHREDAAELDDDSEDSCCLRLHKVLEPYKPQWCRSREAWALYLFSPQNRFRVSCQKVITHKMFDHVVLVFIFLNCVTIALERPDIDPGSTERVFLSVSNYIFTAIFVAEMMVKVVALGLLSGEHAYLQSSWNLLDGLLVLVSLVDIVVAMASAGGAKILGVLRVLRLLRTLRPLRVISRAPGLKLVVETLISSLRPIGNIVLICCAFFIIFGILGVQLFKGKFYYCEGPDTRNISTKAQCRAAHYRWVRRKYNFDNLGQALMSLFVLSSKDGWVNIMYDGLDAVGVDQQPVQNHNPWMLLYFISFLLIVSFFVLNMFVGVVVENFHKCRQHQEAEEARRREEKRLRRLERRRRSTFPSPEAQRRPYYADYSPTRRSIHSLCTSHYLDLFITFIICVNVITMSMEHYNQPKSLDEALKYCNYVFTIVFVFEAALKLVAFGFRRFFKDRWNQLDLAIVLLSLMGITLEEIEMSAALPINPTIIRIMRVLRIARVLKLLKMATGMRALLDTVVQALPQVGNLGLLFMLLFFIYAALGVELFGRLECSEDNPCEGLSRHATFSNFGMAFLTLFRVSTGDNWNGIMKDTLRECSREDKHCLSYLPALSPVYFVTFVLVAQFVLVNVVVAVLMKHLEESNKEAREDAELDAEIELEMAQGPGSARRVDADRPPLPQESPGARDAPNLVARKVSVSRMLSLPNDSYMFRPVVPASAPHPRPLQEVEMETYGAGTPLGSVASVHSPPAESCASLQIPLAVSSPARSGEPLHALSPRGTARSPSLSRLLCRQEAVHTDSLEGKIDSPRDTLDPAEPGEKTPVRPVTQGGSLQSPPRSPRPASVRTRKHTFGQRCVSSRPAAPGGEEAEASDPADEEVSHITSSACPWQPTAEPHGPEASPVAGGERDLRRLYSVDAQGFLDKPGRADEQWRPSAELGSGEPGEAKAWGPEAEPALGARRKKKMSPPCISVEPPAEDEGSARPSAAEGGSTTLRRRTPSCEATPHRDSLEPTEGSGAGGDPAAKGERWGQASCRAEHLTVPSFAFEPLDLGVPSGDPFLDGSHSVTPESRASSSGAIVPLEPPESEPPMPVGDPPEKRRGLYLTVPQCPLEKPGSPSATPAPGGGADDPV

[2] = biological target: T1, Voltage-dependent T-type calcium channel subunit alpha-1G (Homo sapiens, UniProt O43497); experiment: Inhibition of alpha-1G T-type calcium channel expressed in HEK293 cells by electrophysiological method
T1 sequence (O43497 whole entry): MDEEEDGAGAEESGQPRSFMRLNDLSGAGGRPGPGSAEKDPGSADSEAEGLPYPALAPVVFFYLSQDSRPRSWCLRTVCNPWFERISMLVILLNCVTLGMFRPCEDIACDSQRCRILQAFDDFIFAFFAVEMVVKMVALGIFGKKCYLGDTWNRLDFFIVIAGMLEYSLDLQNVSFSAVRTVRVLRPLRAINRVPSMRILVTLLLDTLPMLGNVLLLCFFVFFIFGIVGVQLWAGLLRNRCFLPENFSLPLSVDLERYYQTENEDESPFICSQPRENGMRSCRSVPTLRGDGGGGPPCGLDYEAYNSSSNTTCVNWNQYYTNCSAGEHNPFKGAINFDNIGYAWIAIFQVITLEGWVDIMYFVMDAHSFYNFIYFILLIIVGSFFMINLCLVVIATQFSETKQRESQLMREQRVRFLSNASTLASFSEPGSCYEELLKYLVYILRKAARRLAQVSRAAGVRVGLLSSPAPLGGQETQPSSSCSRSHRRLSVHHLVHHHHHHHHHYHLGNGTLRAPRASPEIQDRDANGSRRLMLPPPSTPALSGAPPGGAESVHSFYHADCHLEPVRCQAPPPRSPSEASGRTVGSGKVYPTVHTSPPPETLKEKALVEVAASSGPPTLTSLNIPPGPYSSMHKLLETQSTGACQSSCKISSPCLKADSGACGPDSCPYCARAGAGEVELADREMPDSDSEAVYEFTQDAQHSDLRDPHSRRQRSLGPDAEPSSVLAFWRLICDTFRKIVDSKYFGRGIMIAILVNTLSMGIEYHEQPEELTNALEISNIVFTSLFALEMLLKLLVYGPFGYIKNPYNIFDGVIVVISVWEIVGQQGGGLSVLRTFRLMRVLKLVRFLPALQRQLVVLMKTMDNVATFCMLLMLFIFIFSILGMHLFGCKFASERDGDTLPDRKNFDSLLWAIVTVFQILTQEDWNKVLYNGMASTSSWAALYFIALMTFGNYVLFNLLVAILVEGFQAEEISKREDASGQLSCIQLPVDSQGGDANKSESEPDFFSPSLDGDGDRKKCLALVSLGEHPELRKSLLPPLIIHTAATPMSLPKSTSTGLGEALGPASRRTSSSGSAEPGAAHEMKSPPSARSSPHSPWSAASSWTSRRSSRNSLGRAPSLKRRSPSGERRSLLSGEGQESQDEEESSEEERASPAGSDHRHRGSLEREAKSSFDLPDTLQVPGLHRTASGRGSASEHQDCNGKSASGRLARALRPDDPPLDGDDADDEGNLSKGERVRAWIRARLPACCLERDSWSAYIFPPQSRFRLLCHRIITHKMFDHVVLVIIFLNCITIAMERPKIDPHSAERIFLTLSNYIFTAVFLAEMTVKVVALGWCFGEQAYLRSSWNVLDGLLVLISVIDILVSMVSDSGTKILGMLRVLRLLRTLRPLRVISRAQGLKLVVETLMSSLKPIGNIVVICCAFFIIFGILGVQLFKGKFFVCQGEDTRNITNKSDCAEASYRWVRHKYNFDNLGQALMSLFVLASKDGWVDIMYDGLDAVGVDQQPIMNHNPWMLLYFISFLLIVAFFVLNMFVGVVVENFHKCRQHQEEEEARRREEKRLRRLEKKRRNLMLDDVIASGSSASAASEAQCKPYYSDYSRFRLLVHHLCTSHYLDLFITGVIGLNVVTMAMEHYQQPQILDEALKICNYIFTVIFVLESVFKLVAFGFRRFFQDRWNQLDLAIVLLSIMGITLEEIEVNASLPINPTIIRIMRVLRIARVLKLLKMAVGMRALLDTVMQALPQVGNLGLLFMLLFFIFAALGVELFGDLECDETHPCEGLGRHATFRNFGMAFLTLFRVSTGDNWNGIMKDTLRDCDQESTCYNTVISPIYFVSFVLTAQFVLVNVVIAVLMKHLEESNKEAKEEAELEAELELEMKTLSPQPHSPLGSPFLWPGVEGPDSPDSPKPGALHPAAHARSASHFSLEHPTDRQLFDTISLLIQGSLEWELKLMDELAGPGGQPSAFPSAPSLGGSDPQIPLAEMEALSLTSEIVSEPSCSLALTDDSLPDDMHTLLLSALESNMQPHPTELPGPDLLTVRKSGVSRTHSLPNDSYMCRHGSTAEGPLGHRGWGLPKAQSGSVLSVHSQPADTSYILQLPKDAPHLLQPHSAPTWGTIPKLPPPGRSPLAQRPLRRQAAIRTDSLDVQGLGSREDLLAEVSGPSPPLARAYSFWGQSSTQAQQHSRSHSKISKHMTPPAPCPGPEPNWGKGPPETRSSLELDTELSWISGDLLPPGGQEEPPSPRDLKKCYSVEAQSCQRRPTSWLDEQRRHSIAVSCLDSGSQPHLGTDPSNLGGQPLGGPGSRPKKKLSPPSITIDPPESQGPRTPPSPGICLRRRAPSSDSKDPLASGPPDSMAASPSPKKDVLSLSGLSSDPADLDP

[3] = Inhibition of alpha-1B N-type calcium channel expressed in HEK293 cells by electrophysiological method
[4] = biological target: T1, Voltage-dependent T-type calcium channel subunit alpha-1G; experiment: Inhibition of alpha-1G T-type calcium channel expressed in HEK293 cells at 10 uM by electrophysiological method

Row | inhibition [1] | SMILES | further results
1 |  | O=C(NC1CCN(Cc2ccccc2)CC1)c1ccc2c(=O)n(Cc3ccc(Cl)cc3)c(=S)[nH]c2c1 | Activity [1]: inactive
2 | 56% | CC1CC(C)CN(CCCNc2ccc(C(=O)Nc3ccc(C(F)(F)F)cc3)cc2[N+](=O)[O-])C1 (stereo not given) | 
3 |  | CCN(CC)CCOC(=O)c1ccc(N/C=C2/C(=O)NC(=O)N(CCc3ccccc3)C2=O)cc1 | Activity [1]: inactive
4 | 16.1% | COc1cccc(NC2=C3C(=O)c4ccccc4C4ON=C(C(N5CCN(Cc6cc(Cl)ccc6OC)CC5)=C2)C34)c1 (stereo not given) | 
5 | inactive | O=C(NCCCN1CCN(c2ccccc2F)CC1)c1ccc(CNc2nc(=S)[nH]c3ccccc23)cc1 | 
6 | 43.9% | O=C(CCC(=O)Nc1nc(-c2cc3cc(Cl)ccc3oc2=O)cs1)NCCCN1CCCC1 | 
7 | 11.4% | O=C(O)c1ccc2c(=O)n(Cc3ccc(CNCCCN4CCN(c5cccc(Cl)c5)CC4)cc3)c(=S)[nH]c2c1 | 
8 | 42.5% | O=C(CN(c1cccc([N+](=O)[O-])c1)S(=O)(=O)c1ccccc1)N1CCN(Cc2ccccc2)CC1 | 
9 | 34.7% | Cc1ccc(N(CC(O)CN(Cc2ccccc2)Cc2ccccc2)S(=O)(=O)c2ccccc2[N+](=O)[O-])cc1 (stereo not given) | 
10 | 52.2% | CCN(CC)CCNC(=O)C1c2ccccc2C(=O)N(Cc2ccc(F)cc2)C1c1ccc(OC)cc1 (stereo not given) | 
11 | 51.8% | O=C1CC(N2CCN(C(c3ccc(F)cc3)c3ccc(F)cc3)CC2)C(=O)N1c1ccc(Cl)cc1 (stereo not given) | 
12 | 16.6% | O=C1CC(N2CCN(C(c3ccccc3)c3ccc(Cl)cc3)CC2)C(=O)N1c1cccc(Cl)c1 (stereo not given) | 
13 |  | Cc1ccc(N2CCN(CCNCc3cc(-c4ccccc4C(F)(F)F)no3)CC2)c(C)c1 | IC50 [2]: 1.53 µM
14 | 12% | O=C(CCN1C(=O)c2ccccc2C1=O)N1CCN(Cc2ccc(Cl)cc2Cl)CC1 | 
15 |  | CCN1CCN(c2cc(C)c3cc(NC(=O)/C=C/c4cccc(Cl)c4)ccc3n2)CC1 | Activity [1]: inactive
16 |  | O=C(CN1CCN(C2c3ccccc3-c3ccccc32)CC1)Nc1cc(C(F)(F)F)ccc1Cl | Activity [1]: inactive
17 | 15.2% | O=S(=O)(c1ccccc1)N(CC(O)CN(Cc1ccccc1)Cc1ccccc1)c1ccccc1 (stereo not given) | 
18 | 7.57% | O=[N+]([O-])c1ccccc1S(=O)(=O)N1CCN(Cc2ccccc2Cl)CC1 | 
19 |  | CC1CCN(CCCNC(=O)c2ccc3c(=O)n(Cc4ccc(Cl)cc4)c(=S)[nH]c3c2)CC1 | IC50 [3]: 6.4 µM; inhibition [4]: 89.2%; IC50 [2]: 1.1 µM
20 | 8.1% | O=C1c2ccccc2C(=O)N1CCCN1CCN(Cc2c(F)cccc2Cl)CC1 | 

Row | inhibition [1] | SMILES | further results
21 |  | COc1ccccc1-c1cc(CNCCN2CCN(c3ccc(C)cc3C)CC2)on1 | IC50 [2]: 2.02 µM
22 |  | CC1CCN(CCNC(=O)c2ccc(-n3c(=S)[nH]c4ccccc4c3=O)cc2)CC1 | Activity [1]: inactive
23 | 84.1% | O=C(NCCCN1CCCC1)c1ccc2c(=O)n(Cc3ccc(Cl)cc3)c(=S)[nH]c2c1 | IC50 [3]: 17.2 µM; inhibition [4]: 85.4%; IC50 [2]: 1.16 µM
24 |  | CCN1CCN(CCCNC(=O)c2ccc3c(=O)n(Cc4ccc(Cl)cc4)c(=S)[nH]c3c2)CC1 | IC50 [3]: 7.1 µM; inhibition [4]: 78.9%; IC50 [2]: 2.53 µM
25 | 2.47% | O=C(NCCCn1ccnc1)c1ccc2c(=O)n(-c3ccccc3)c(=S)[nH]c2c1 | 
26 |  | COC(=O)c1ccc(S(=O)(=O)N2CCN(C(c3ccccc3)c3ccccc3)CC2)n1C | Activity [1]: inactive
27 |  | O=C(NCCCN1CCCCCC1)c1ccc2c(=O)n(Cc3ccc(Cl)cc3)c(=S)[nH]c2c1 | IC50 [3]: 5.8 µM; inhibition [4]: 85.4%; IC50 [2]: 1.41 µM
28 |  | O=C1c2ccccc2C(=O)N1CC#CCN1CCN(C(c2ccccc2)c2ccccc2)CC1 | Activity [1]: inactive
29 |  | FC(F)(F)c1cccc(N2CCN(CCNCc3cc(-c4ccccc4C(F)(F)F)no3)CC2)c1 | IC50 [2]: 1.02 µM
30 | 11.4% | FC(F)(F)c1cccc(N2CCN(Cn3nc(-c4ccccc4)n(-c4ccccc4)c3=S)CC2)c1 | 
31 |  | COc1ccccc1-c1cc(CNCCN2CCN(c3cccc(C(F)(F)F)c3)CC2)on1 | IC50 [2]: 2.04 µM
32 | 72.9% | O=C(NCCCN1CCCCC1)c1ccc2c(=O)n(Cc3ccc(Cl)cc3)c(=S)[nH]c2c1 | IC50 [3]: 8.1 µM; inhibition [4]: 34.3%; IC50 [2]: 2.08 µM
33 | 35.3% | CCOC(=O)c1cc2c(c(CSc3nc4ccccc4c(=O)n3CCCN3CCCCC3)c1)OCOC2 | 
34 |  | CCCCN(C)CCNC(=O)c1ccc2c(=O)n(Cc3ccc(Cl)cc3)c(=S)[nH]c2c1 | inhibition [4]: 34.3%; IC50 [2]: 11.4 µM
35 | 86.5% | CN(c1ccc(Br)cc1)S(=O)(=O)c1ccc2[nH]cc(C(=O)N3CCN(Cc4ccccc4)CC3)c(=O)c2c1 | 
36 |  | O=C(NCCCn1ccnc1)c1ccc2c(=O)n(-c3ccc(F)c(Cl)c3)c(=S)[nH]c2c1 | Activity [1]: inactive
37 | 15.2% | O=S(=O)(c1cccc2nonc12)N1CCN(C(c2ccccc2)c2ccccc2)CC1 | 
38 | 41.9% | CCN(CC)CCNC(=O)c1ccc(NC(=O)c2cn(CC)c3nc(C)ccc3c2=O)cc1 | 
39 | 13.5% | Cc1ccc(C(=O)Oc2ccc(NC3=NS(=O)(=O)c4ccccc43)cc2CN2CCCCC2)cc1 | 
40 |  | CN1CCN(C(=O)c2ccc3c(=O)n(Cc4ccc(Cl)cc4)c(=S)[nH]c3c2)CC1 | inhibition [4]: 51.4%; IC50 [2]: 11.4 µM

Row | inhibition [1] | SMILES | further results
41 | 12.5% | O=C(CN1CCN(C(c2ccccc2)c2ccccc2)CC1)NCc1ccc2c(c1)OCO2 | 
42 |  | Cc1ccc(CSc2nc3cc(C(=O)NCCCN4CCOCC4)ccc3c(=O)n2-c2ccc(F)cc2)cc1 | Activity [1]: inactive
43 | 15.9% | O=C(NCCCN1CCOCC1)c1ccc2c(=O)n(-c3cccc(C(F)(F)F)c3)c(=S)[nH]c2c1 | 
44 |  | CN(CCCNC(=O)c1ccc2c(=O)n(Cc3ccc(Cl)cc3)c(=S)[nH]c2c1)Cc1ccccc1 | inhibition [4]: 37.5%; IC50 [2]: 4.69 µM
45 | 22% | CCOC(=O)c1c(NC(=O)c2ccc(S(=O)(=O)N(C)c3ccccc3)cc2)sc2c1CCN(CC)C2 | 
46 | 41.8% | O=C1CC(N2CCN(C(c3ccccc3)c3ccccc3)CC2)C(=O)N1c1ccc(Cl)c(C(F)(F)F)c1 (stereo not given) | 
47 | 28.3% | O=C(CSC1CN(C(c2ccccc2)c2ccccc2)C1)NNC(=O)c1ccc(Cl)cc1 | 
48 | 25.7% | CN(CCCNC(=O)c1ccc(-n2c(=S)[nH]c3ccc(Br)cc3c2=O)cc1)Cc1ccccc1 | 
49 |  | CCN1C(N2CCCCC2)=Nc2ccccc2C1CC(=O)NCc1ccc(NS(=O)(=O)c2ccc(C)cc2)cc1 (stereo not given) | IC50 [2]: 0.96 µM
50 | 58.3% | OC(CN1CCN(C(c2ccccc2)c2ccccc2)CC1)Oc1cccc(C(F)(F)F)c1 (stereo not given) | 
51 | 62.6% | CC1CCN(CCCNC(=O)c2ccc(Cn3c(=S)[nH]c4ccc(Br)cc4c3=O)cc2)CC1 | 
52 | 13% | CCN(CC)CCNC(=O)c1cn(-c2ccc(Cl)cc2)c(=O)c2ccccc12 | 
53 | 43.3% | O=C(CCN1C(=O)c2ccccc2C1=O)N1CCN(C(c2ccccc2)c2ccccc2)CC1 | 
54 | 34.4% | CCN(CC)CCOC(=O)c1ccc(NC(=O)c2cc3ccccc3o2)cc1 | 
55 | 10.3% | COC(=O)c1ccc2c(=O)n(Cc3ccc(C(=O)N4CCC(N5CCCCC5)CC4)cc3)c(=S)[nH]c2c1 | 
56 | 15.9% | O=C(NCCCN1CCOCC1)c1ccc2c(=O)n(Cc3ccccc3)c(=S)[nH]c2c1 | 
57 | 98.3% | CCC1CCCCN1CCCNC(=O)c1ccc2c(=O)n(Cc3ccc(Cl)cc3)c(=S)[nH]c2c1 (stereo not given) | IC50 [3]: 2.1 µM; inhibition [4]: 88.3%
58 |  | CN(C)CCNC(=O)c1ccc2c(=O)n(Cc3ccc(Cl)cc3)c(=S)[nH]c2c1 | inhibition [4]: 43.5%; IC50 [2]: 53.5 µM
59 | 9.54% | CCN(CC)CCNC(=O)c1ccc(CNc2nc(=S)[nH]c3ccccc23)cc1 | 
60 | 37.1% | O=C1CC(N2CCN(C(c3ccc(F)cc3)c3ccc(F)cc3)CC2)C(=O)N1c1ccc(Br)cc1 (stereo not given) | 

Row | SMILES | inhibition [1] | further results
61 | CCOC(=O)c1c(C)n(Cc2ccccc2)c2ccc(OCC(O)CN3CCN(Cc4ccccc4)CC3)cc12 (stereo not given) | 8.83% | 
62 | Cc1cccc(N2CCN(CC(=O)Nc3ccc(Cl)cc3C(=O)c3ccccc3Br)CC2C)c1 (stereo not given) | 9.23% | 
